From patent publication US11844868B2, “Dry powder composition for peroral administration” (VICORE PHARMA AB, priority 2020, dated 2023)

What was measured:
Assay type in all cases: physicochemical
[1] = Stability of aqueous solutions of C21 (free C21 1 mg/mL in 0.9% NaCl pH 9.4; sodium salt likewise) under four storage conditions, HPLC; settings: for light-induced degradation: aqueous solution, RT/light; for chemical stability: solution stored in dark at 5° C., RT and 40° C. for four weeks
Description: The stability of free C21 in 0.9% NaCl pH 9.4 was investigated.
Solutions of 1 mg/mL of C21 were studied for four weeks under four different storage conditions. The solution was filtered through a 0.22 sterile syringe filter to minimize bacterial growth during the stability test. The samples were analysed by HPLC for purity.
The results are summarised in Table 3 below, in which the amount of C21 is given as a percentage of the initial amount of drug. Solution pHs were also measured and are shown within parenthesis in Table 3.
The stability of the sodium salt of C21 was also investigated under the same storage conditions.
At the time for analysis of the one week samples, it was noted that the heating cabinet for storage of samples at 40° C. was broken. In view of this, these samples were thereafter kept at room temperature for three days.

[2] = Accelerated stability of C21/mannitol powder mixtures, 60° C. for 12 days
Description: C21 sodium salt was used together with 7 different types of mannitol from two different manufacturers.
C21 and mannitol were added to glass flasks and were mixed together using a Turbula mixer. At a mixing time of 30 minutes, each flask was sampled for homogeneity and related impurities were analysed.
An aliquot of each powder mixture was also subjected to 60° C. for 12 days in a stability analysis. The nominal content of C21 was 7.4% w/w (calculated as free C21) for all mannitol mixtures except one, where an additional strength of 14.8% w/w was also tested.

[3] = Excipient compatibility study, 60° C. for 12 days (related impurities)
Description: The excipients used in the capsules in Comparative Example 3 above were evaluated along with some additional ones (see Table 8 below).
C21 (sodium salt) used in these experiments was ground and passed through a 300 μm sieve. Mixtures of each excipient and C21 were prepared by thorough mixing in the amounts specified in Table 8. The ratio of C21 to various fillers (D-mannitol, MCC, lactose monohydrate and HPMC) was adapted to give a volume equivalent to the larger part of a capsule.
Three capsules of each type were filled with C21. All preparations were stored under accelerated stability conditions at 60° C. for 12 days prior to analysis.
In addition to the disintegrants (sodium starch glycolate and croscarmellose sodium) mentioned above, crospovidone of two different types (Kollidon® CL (Type A), and Kollidon® CL-SF (Type B) (both BASF) were tested.
Mixtures of 130 mg crospovidone and 200 mg C21 were prepared and were thoroughly mixed using a Turbula mixer for 10 minutes. All of these preparations were analysed at time zero and after storage at accelerated stability conditions at 60° C. for 12 days.

[4] = Solubility of C21 sodium salt in aqueous vehicles
Description: In this experiment, C21 sodium salt (Syntagon AB) was added to the vehicle, small amounts at a time. About 20-30 mg of the sodium salt was easily dissolved in all the vehicles tested. Salt was continuously added to the same sample in an attempt to obtain a saturated solution. In this way, higher amounts, such as 40-60 mg/mL could be dissolved. The solubility is probably even higher than this in the vehicles tested, but this was not established in view of the limited amount of drug compound available.

## CCCCOC(=O)NS(=O)(=O)c1sc(CC(C)C)cc1-c1ccc(Cn2ccnc2)cc1 [free C21, N-butyloxycarbonyl-3-(4-imidazol-1-ylmethylphenyl)-5-iso-butylthiophene-2-sulfonamide]
[1]; 5° C., dark, 1 week
  Amount of Free C21, % of initial: 101 % of initial
  Solution pH (within parenthesis): 9.2
[1]; 5° C., dark, 2 weeks
  Amount of Free C21, % of initial: 107 % of initial
  Solution pH (within parenthesis): 9.2
[1]; 5° C., dark, 3 weeks
  Amount of Free C21, % of initial: 108 % of initial
  Solution pH (within parenthesis): 9.1
[1]; 5° C., dark, 4 weeks
  Amount of Free C21, % of initial: 108 % of initial
  Solution pH (within parenthesis): 9.2
[1]; 5° C., dark, Initial
  Amount of Free C21, % of initial: 100 % of initial
  Solution pH (within parenthesis): 9.4
[1]; 40° C., dark, 1 week
  Amount of Free C21, % of initial: 101 % of initial
  Solution pH (within parenthesis): 9.0
[1]; 40° C., dark, 2 weeks
  Amount of Free C21, % of initial: 111 % of initial
  Solution pH (within parenthesis): 8.6
[1]; 40° C., dark, 3 weeks
  Amount of Free C21, % of initial: 106 % of initial
  Solution pH (within parenthesis): 8.7
[1]; 40° C., dark, 4 weeks
  Amount of Free C21, % of initial: 107 % of initial
  Solution pH (within parenthesis): 8.7
[1]; 40° C., dark, Initial
  Amount of Free C21, % of initial: 100 % of initial
  Solution pH (within parenthesis): 9.4
[1]; RT, dark, 1 week
  Amount of Free C21, % of initial: 97 % of initial
  Solution pH (within parenthesis): (9.2)
[1]; RT, dark, 2 weeks
  Amount of Free C21, % of initial: 109 % of initial
  Solution pH (within parenthesis): (8.9)
[1]; RT, dark, 3 weeks
  Amount of Free C21, % of initial: 105 % of initial
  Solution pH (within parenthesis): (9.0)
[1]; RT, dark, 4 weeks
  Amount of Free C21, % of initial: 106 % of initial
  Solution pH (within parenthesis): (8.9)
[1]; RT, dark, Initial
  Amount of Free C21, % of initial: 100 % of initial
  Solution pH (within parenthesis): (9.4)
[1]; RT, light, 1 week
  Amount of Free C21, % of initial: 96 % of initial
  Solution pH (within parenthesis): (9.0)
[1]; RT, light, 2 weeks
  Amount of Free C21, % of initial: 44 % of initial
  Solution pH (within parenthesis): (8.0)
[1]; RT, light, 3 weeks
  Amount of Free C21, % of initial: 96 % of initial
  Solution pH (within parenthesis): (8.5)
[1]; RT, light, 4 weeks
  Amount of Free C21, % of initial: 13 % of initial
  Solution pH (within parenthesis): (7.7)
[1]; RT, light, Initial
  Amount of Free C21, % of initial: 100 % of initial
  Solution pH (within parenthesis): (9.4)
[1]
  light-induced degradation: light-induced degradation occurs
  chemical stability: chemically stable
[1]; free C21 solution, samples stored at 5° C., RT/dark and 40° C.
  total impurity peak area: around 2.5 area % of C21 peak area

## CCCCOC(=O)[N-]S(=O)(=O)c1sc(CC(C)C)cc1-c1ccc(Cn2ccnc2)cc1.[Na+] [C21 sodium salt]
[2]
  Impurities ≥0.05% Formed: 1: 0.26 area %
[3]
  Degradation: Sum of impurities (≥0.05%): 0.26%
  Individual Impurity 1: 0.26 area %
  degradation of C21: No degradation
[4]; salt continuously added, vehicles tested, saturation not established
  amount that could be dissolved: 40 to 60 mg/mL
[4]; similar experiment
  solubility compared with free C21: considerably higher than free C21
[4]; vehicle 0.9% NaCl, pH 9.3
  Concentration (solubility): >40 mg/mL
[4]; vehicle H2O, pH 9.8
  Concentration (solubility): >65 mg/mL
[4]; vehicle PBS pH 7.4, measured pH 9.4
  Concentration (solubility): >40 mg/mL
[1]; 5° C., dark, 1 week
  Amount of Free C21, % of initial: 108 % of initial
  Solution pH (within parenthesis): 8.5
[1]; 5° C., dark, 2 weeks
  Amount of Free C21, % of initial: 113 % of initial
  Solution pH (within parenthesis): 8.4
[1]; 5° C., dark, 3 weeks
  Amount of Free C21, % of initial: 113 % of initial
  Solution pH (within parenthesis): 8.5
[1]; 5° C., dark, 4 weeks
  Amount of Free C21, % of initial: 112 % of initial
  Solution pH (within parenthesis): 8.5
[1]; 5° C., dark, Initial
  Amount of Free C21, % of initial: 100 % of initial
  Solution pH (within parenthesis): 8.3
[1]; 40° C., dark, 1 week
  Amount of Free C21, % of initial: 111 % of initial
  Solution pH (within parenthesis): 8.6
[1]; 40° C., dark, 2 weeks
  Amount of Free C21, % of initial: 111 % of initial
  Solution pH (within parenthesis): 8.5
[1]; 40° C., dark, 3 weeks
  Amount of Free C21, % of initial: 109 % of initial
  Solution pH (within parenthesis): 8.7
[1]; 40° C., dark, 4 weeks
  Amount of Free C21, % of initial: 118 % of initial
  Solution pH (within parenthesis): 8.1
[1]; 40° C., dark, Initial
  Amount of Free C21, % of initial: 100 % of initial
  Solution pH (within parenthesis): 8.3
[1]; RT, dark, 1 week
  Amount of Free C21, % of initial: 115 % of initial
  Solution pH (within parenthesis): 8.6
[1]; RT, dark, 2 weeks
  Amount of Free C21, % of initial: 110 % of initial
  Solution pH (within parenthesis): 8.8
[1]; RT, dark, 3 weeks
  Amount of Free C21, % of initial: 111 % of initial
  Solution pH (within parenthesis): 8.8
[1]; RT, dark, 4 weeks
  Amount of Free C21, % of initial: 112 % of initial
  Solution pH (within parenthesis): 8.2
[1]; RT, dark, Initial
  Amount of Free C21, % of initial: 100 % of initial
  Solution pH (within parenthesis): 8.3
[1]; RT, light, 1 week
  Amount of Free C21, % of initial: 108 % of initial
  Solution pH (within parenthesis): (8.4)
[1]; RT, light, 2 weeks
  Amount of Free C21, % of initial: 96 % of initial
  Solution pH (within parenthesis): (8.0)
[1]; RT, light, 3 weeks
  Amount of Free C21, % of initial: 72 % of initial
  Solution pH (within parenthesis): (8.3)
[1]; RT, light, 4 weeks
  Amount of Free C21, % of initial: 9 % of initial
  Solution pH (within parenthesis): (7.3)
[1]; RT, light, Initial
  Amount of Free C21, % of initial: 100 % of initial
  Solution pH (within parenthesis): (8.3)
[1]
  light-induced degradation: light-induced degradation occurs
  chemical stability: chemically stable
